These results are taken from patent US9409884B2 (Rigel Pharmaceuticals, Inc., priority 2012, dated 2016).

The first test addresses AMPK. The test can be described thus: AMPK activation, enzyme-linked immunosorbent assay. As to conditions: Table 8, compounds of Table 1. The test is classed as biochemical. Put shortly: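 AMPK activation by test compounds was measured by enzyme-linked immunosorbent assay.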
Take `N#Cc1ccc(CN2CCC(NC(=O)c3cc4ccc(OC5CCN(Cc6cnn(-c7ccc(C#N)cc7)c6)CC5)cc4o3)CC2)cc1` [Compound 1-161, N-(1-(4-cyanobenzyl)piperidin-4-yl)-6-(1-((1-(4-cyanophenyl)-1H-pyrazol-4-yl)methyl)piperidin-4-yloxy)benzofuran-2-carboxamide]: the EC50 (in general, the concentration that produces a half-maximal response) was 500 to 1000 nM.
`FC(F)(F)c1ccc(N2CCC(Oc3ccc4c(c3)CCC4NC3CCN(Cc4ccncc4)CC3)CC2)cc1` (stereo not drawn) [Compound 1-158, 1-(pyridin-4-ylmethyl)-N-(5-(1-(4-(trifluoromethyl)phenyl)piperidin-4-yloxy)-2,3-dihydro-1H-inden-1-yl)piperidin-4-amine] had an EC50 of 100 to 500 nM.
The same measure, in the same setting: the figure for `O=C(NC1CCN(Cc2cccnc2)CC1)c1cncc(OC2CCN(c3ccc(C(F)(F)F)cc3)CC2)c1` [Compound 1-18, N-(1-(pyridin-3-ylmethyl)piperidin-4-yl)-5-(1-(4-(trifluoromethyl)phenyl)piperidin-4-yloxy)nicotinamide] is under 100 nM.
The compound `N#Cc1ccc(CN2CCC(NC(=O)c3cc(OC4CCN(c5ccc(C(F)(F)F)cc5)CC4)ccn3)CC2)cc1` [Compound 1-28, N-(1-(4-cyanobenzyl)piperidin-4-yl)-4-(1-(4-(trifluoromethyl)phenyl)piperidin-4-yloxy)picolinamide] returned an EC50 of under 100 nM.
In the case of `N#Cc1ccc(CN2CCC(NC(=O)c3cc4ccc(OC5CCN(c6ccc(C(F)(F)F)cc6)CC5)cc4o3)CC2)cc1` [Compound 1-90, N-(1-(4-cyanobenzyl)piperidin-4-yl)-6-(1-(4-(trifluoromethyl)phenyl)piperidin-4-yloxy)benzofuran-2-carboxamide], the EC50 was under 100 nM.
On to `O=C(NC1CCN(Cc2cccnc2)CC1)c1cc2cc(OC3CCN(c4ccc(C(F)(F)F)cc4)CC3)ccc2o1` [Compound 1-101, N-(1-(pyridin-3-ylmethyl)piperidin-4-yl)-5-(1-(4-(trifluoromethyl)phenyl)piperidin-4-yloxy)benzofuran-2-carboxamide], for which the EC50 was under 100 nM.
For the compound `Cc1c(C(=O)NC2CCN(Cc3ccccn3)CC2)oc2cc(OC3CCN(c4ccc(C(F)(F)F)cc4)CC3)ccc12` [Compound 1-68, 3-methyl-N-(1-(pyridin-2-ylmethyl)piperidin-4-yl)-6-(1-(4-(trifluoromethyl)phenyl)piperidin-4-yloxy)benzofuran-2-carboxamide], the EC50 is under 100 nM.
On the same count and under the same terms, the figure for `O=C(NCCCNCc1ccncc1)c1ccc(OC2CCN(c3ccc(C(F)(F)F)cc3)CC2)cn1` [Compound 1-50, N-(3-(pyridin-4-ylmethylamino)propyl)-5-(1-(4-(trifluoromethyl)phenyl)piperidin-4-yloxy)picolinamide] is 1000 to 5000 nM.
In turn, `O=C(NC1CCN(Cc2ccccc2)CC1)c1cc2cc(OC3CCN(Cc4cccc(C(F)(F)F)c4)CC3)ccc2o1` [Compound 1-73, N-(1-benzylpiperidin-4-yl)-5-(1-(3-(trifluoromethyl)benzyl)piperidin-4-yloxy)benzofuran-2-carboxamide] registered an EC50 of 500 to 1000 nM.
On the same count and under the same terms, under `O=C(NC1CCN(Cc2c[nH]cn2)CC1)c1ccc(OC2CCN(c3ccc(C(F)(F)F)cc3)CC2)cn1` [Compound 1-48, N-(1-((1H-imidazol-4-yl)methyl)piperidin-4-yl)-5-(1-(4-(trifluoromethyl)phenyl)piperidin-4-yloxy)picolinamide] stands 1000 to 5000 nM; under `CN(C(=O)c1cc2cc(OC3CCN(c4ccc(C(F)(F)F)cc4)CC3)ccc2o1)C1CCN(Cc2ccncc2)CC1` [Compound 1-104, N-methyl-N-(1-(pyridin-4-ylmethyl)piperidin-4-yl)-5-(1-(4-(trifluoromethyl)phenyl)piperidin-4-yloxy)benzofuran-2-carboxamide], 100 to 500 nM.

Staying with this test, now noted: Table 9, compounds of Table 2.
With `O=C(NC1CCN(S(=O)(=O)c2ccc(C(F)(F)F)cc2)CC1)c1ccc2[nH]c3c(c2c1)CN(Cc1ccc(C(F)(F)F)cc1)CC3` [Compound 2-23, 2-(4-(trifluoromethyl)benzyl)-N-(1-(4-(trifluoromethyl)phenylsulfonyl)piperidin-4-yl)-2,3,4,5-tetrahydro-1H-pyrido[4,3-b]indole-8-carboxamide], the half-maximal effective concentration (EC50) is 1000 to 5000 nM.
Still for that read-out and setting: under `NC(=O)c1ccc(CN2CCc3[nH]c4ccc(C(=O)NC5CCN(C(=O)c6ccncc6)CC5)cc4c3C2)cc1` [Compound 2-46, 2-(4-carbamoylbenzyl)-N-(1-isonicotinoylpiperidin-4-yl)-2,3,4,5-tetrahydro-1H-pyrido[4,3-b]indole-8-carboxamide] stands over 100000 nM; under `O=C(NC1CCN(Cc2ccc(C(F)(F)F)cc2)CC1)c1ccc2[nH]c3c(c2c1)CN(c1ccc(F)cc1)CC3` [Compound 2-37, 2-(4-fluorophenyl)-N-(1-(4-(trifluoromethyl)benzyl)piperidin-4-yl)-2,3,4,5-tetrahydro-1H-pyrido[4,3-b]indole-8-carboxamide], 5000 to 10000 nM.

Staying with this test, now noted: Table 12, compounds of Table 5.
`N#Cc1ccc(CN2CCC(Oc3ccc(C(=O)NC4CCN(Cc5ccc(Cl)cc5)CC4)cc3F)CC2)cc1` [Compound 5-70, N-(1-(4-chlorobenzyl)piperidin-4-yl)-4-(1-(4-cyanobenzyl)piperidin-4-yloxy)-3-fluorobenzamide] yielded an EC50 of under 1000 nM.
For `N#Cc1ccc(N2CCC(Oc3ccc(C(=O)NC4CCN(Cc5ccc(Cl)cc5)CC4)cc3F)CC2)cc1` [Compound 5-81, N-(1-(4-chlorobenzyl)piperidin-4-yl)-4-(1-(4-cyanophenyl)piperidin-4-yloxy)-3-fluorobenzamide], the EC50 is under 1000 nM.
`O=C(NC1CCN(Cc2ccccc2)CC1)c1ccc(OC2CCN(Cc3ccncc3)CC2)c(Cl)c1` [Compound 5-6, N-(1-benzylpiperidin-4-yl)-3-chloro-4-(1-(pyridin-4-ylmethyl)piperidin-4-yloxy)benzamide] displayed a concentration giving a half-maximal response (EC50) of under 1000 nM.
In turn, `O=C(c1ccc(OC2CCN(Cc3ccccc3)CC2)cc1)N1CCN(c2ccccc2)CC1` [Compound 5-103, (4-(1-benzylpiperidin-4-yloxy)phenyl)(4-phenylpiperazin-l-yl)methanone] showed an EC50 of 20000 to 50000 nM.
`COc1cc(C(=O)NC2CCN(Cc3ccccc3)CC2)ccc1OC1CCN(c2cccs2)CC1` [Compound 5-8, N-(1-benzylpiperidin-4-yl)-3-methoxy-4-(1-(thiophen-2-yl)piperidin-4-yloxy)benzamide] registered an EC50 of 1000 to 10000 nM.
The same measure, in the same setting: under `COc1cc(C(=O)NC2CCN(Cc3ccccc3)CC2)ccc1OC1CCN(S(C)(=O)=O)CC1` [Compound 5-9, N-(1-benzylpiperidin-4-yl)-3-methoxy-4-(1-(methylsulfonyl)piperidin-4-yloxy)benzamide] stands 20000 to 50000 nM.

Staying with this test, now noted: Table 13, compounds of Table 6.
Turning to `N#Cc1ccc(CN2CCC(NC(=O)c3cc4cc(NC(=O)c5cnn(Cc6ccc(C#N)cc6)c5)ccc4o3)CC2)cc1` [Compound 6-73, 1-(4-cyanobenzyl)-N-(2-(1-(4-cyanobenzyl)piperidin-4-ylcarbamoyl)benzofuran-5-yl)-1H-pyrazole-4-carboxamide], the EC50 is 1000 to 10000 nM.

The same test, now with this note: Table 14, compounds of Table 7.
The compound `COc1ccc(CN2CCC(NC(=O)c3ccc(C(=O)N4CCC(Oc5ccc6sc(C)nc6c5)CC4)nc3)CC2)cc1` [Compound 7-24, N-(1-(4-methoxybenzyl)piperidin-4-yl)-6-(4-(2-methylbenzo[d]thiazol-5-yloxy)piperidine-1-carbonyl)nicotinamide] had an EC50 of under 1000 nM.
As to `COc1ccc(C(=O)C2CCN(C(=O)c3ccc(C(=O)NC4CCN(Cc5ccc(OC(F)(F)F)cc5)C[C@H]4F)cn3)CC2)cc1` (stereo partly drawn) [Compound 7-33, (3,4-trans)-3-fluoro-4-(6-(4-(4-methoxybenzoyl)piperidine-1-carbonyl)nicotinamido)-1-(4-(trifluoromethoxy)benzyl) piperidinium], the EC50 is under 1000 nM.
The compound `COc1ccc(C(=O)C2CCN(C(=O)c3ccc(C(=O)NC4CCN(Cc5ccc(C#N)c(F)c5)CC4(C)C)cn3)CC2)cc1` (stereo not drawn) [Compound 7-86, N-(1-(4-cyano-3-fluorobenzyl)-3,3-dimethylpiperidin-4-yl)-6-(4-(4-methoxybenzoyl)piperidine-1-carbonyl)nicotinamide] showed an EC50 of under 1000 nM.
Consider `COc1ccc(C(=O)C2CCN(C(=O)c3ccc(C(=O)NC4CCN(Cc5ccc(-n6cccn6)cc5)C[C@H]4F)cn3)CC2)cc1` (stereo partly drawn) [Compound 7-41, N-((3,4-trans)-1-(4-(1H-pyrazol-1-yl)benzyl)-3-fluoropiperidin-4-yl)-6-(4-(4-methoxybenzoyl)piperidine-1-carbonyl)nicotinamide], for which the 50% effective concentration (EC50) was under 1000 nM.
In turn, `COc1ccc(CN2CCC(NC(=O)c3ccc(C(=O)N4CCC(Oc5ccc6c(c5)ncn6C)CC4)nc3)CC2)cc1` [Compound 7-40, N-(1-(4-methoxybenzyl)piperidin-4-yl)-6-(4-(1-methyl-1H-benzo[d]imidazol-5-yloxy)piperidine-1-carbonyl)nicotinamide] returned an EC50 of 1000 to 10000 nM.
Consider `Cc1cc(OC2CCN(C(=O)c3ccc(C(=O)NC4CCN(Cc5ccc(C#N)cc5)CC4)cn3)CC2)ccc1S(C)(=O)=O` [Compound 7-13, N-(1-(4-cyanobenzyl)piperidin-4-yl)-6-(4-(3-methyl-4-(methylsulfonyl)phenoxy)piperidine-1-carbonyl) nicotinamide], for which the EC50 is 1000 to 10000 nM.
The same measure, in the same setting: under `CC(C)S(=O)(=O)c1ccc(N2CCN(C(=O)c3ccc(C(=O)Nc4ccc(Oc5ccc(S(F)(F)(F)(F)F)cc5)nc4)nc3)CC2)cc1` [Compound 7-6, 5-(4-(4-(isopropylsulfonyl)phenyl)piperazine-1-carbonyl)-N-(6-(4-(pentafluorosulfanyl)phenoxy)pyridin-3-yl)picolinamide] stands under 1000 nM; under `COc1ccc(CN2CCC(NC(=O)c3ccc(C(=O)N4CCCC(C(=O)c5ccc(OC)cc5)C4)nc3)CC2)cc1` (stereo not drawn) [Compound 7-8, 6-(3-(4-methoxybenzoyl)piperidine-1-carbonyl)-N-(1-(4-methoxybenzyl)piperidin-4-yl)nicotinamide], 1000 to 10000 nM.
With `COc1ccc(C(=O)C2CCN(C(=O)c3ccc(C(=O)NC4CCN(Cc5cnn(C)c5)C[C@H]4F)cn3)CC2)cc1` (stereo partly drawn) [Compound 7-63, N-((3,4-trans)-3-fluoro-1-((1-methyl-1H-pyrazol-4-yl)methyl)piperidin-4-yl)-6-(4-(4-methoxybenzoyl)piperidine-1-carbonyl)nicotinamide], the EC50 was 10000 to 20000 nM.
